Details of series [1]: species or system New Zealand rabbits. The settings on record: rabbit, in vivo, po; for haematic levels of Josamycin at the 6th hour: 6 h. The protocol:
The determination of the Josamycin levels was performed both by biological way (Grove, D. C., and Randall, W. A., 1955) and by High Pressure Liquid Chromatography (HPLC).

Series [2] can be described thus: in vivo. The settings on record: rat, rats. The arrangement: species or system Wistar rats of both sexes. The protocol:
(§1) The acute toxicity of the compound of the invention was determined on mice and rats (Swiss mice of both sexes and Wistar rats of both sexes), after oral and intravenous administration of the compound of the invention. It was expressed as an LD50 value, calculated according to the method of Lichtfield and Wilcoxon. The obtained intravenous values were 418 mg/kg in rats and 386 mg/kg in mice.

A short description of series [3]: in vivo. The settings on record: mouse, mice. Also on record: species or system Swiss mice of both sexes. Here is the method: as §1
The subject of the next series is male Wistar rats. Put plainly: Chronic toxicity, 3 months. It is filed as in vivo. The settings on record: 250 mg/kg daily oral or 50 mg/kg daily subcutaneous, body weight, haematic crasis, urinary elimination, biochemical parameters, anatomo-pathology. Here is the method: Three groups of male Wistar rats (average weight: 155 g) were used in this experiment. A first group received a daily dosage of 250 mg/kg of the compound to be tested by oral route, a second group received a daily amount of 50 mg/kg of the same substance by subcutaneous route, a third group (controls) received nothing. The experiment was carried on for 3 consecutive months.
Since the beginning, as well as during and after the treatment, the animals were constantly monitored with respect to the increase in body weight, the haematic crasis, the urinary elimination and various biochemical parameters. At the end of the treatment, all the animals were sacrificed and subjected to anatomo-pathological investigations.

For another series, the system named is pregnant rats. Briefly: Teratological investigation in pregnant rats. It is filed as in vivo. The settings on record: 50 mg/kg s.c. or 300 mg/kg p.o. daily, 1st to 15th day of pregnancy.
A further series deals with pregnant rabbits. Briefly: Teratological investigation in pregnant rabbits. It is filed as in vivo. The settings on record: 50 mg/kg s.c. or 300 mg/kg p.o. daily, 7th to 15th day of pregnancy.
In the next series the test system is newborns. Put plainly: Neonatal investigation (growth and survival of the newborns). It is filed as in vivo. The settings on record: 30 days from birth, versus controls.
Series [4] in a line: Absorption, haematic and tissue levels (general statement). It is filed as in vivo.
Series [5] concerns Josamycin-sensitive bacteria. Put plainly: Antibacterial spectrum in vitro, agar dilution method. The settings on record: versus Josamycin. It is filed as cell-based. Background: Agar dilution tests growth on a series of plates holding different concentrations.
Series [6] deals with Josamycin-sensitive bacteria. Put plainly: Antibacterial spectrum in vivo, infected mice. The settings on record: versus Josamycin.
Another series can be described thus: Solubility in water. It is filed as physicochemical.
The nature of series [7]: Toxicity (general statement).
For series [8], the system named is Josamycin-sensitive bacteria. Briefly: Antibacterial spectrum (general statement). The settings on record: versus Josamycin.
Setting [9] is: oral, could not be determined, no deaths up to 5000 mg/kg, read-out: oral LD50.

What is called LD50 is the dose at which mortality reaches 50%.

Structures are written as SMILES. Where a name gives a salt, the structure may show the parent alone. Read-outs that look alike come from different tables or passages of the source.

In the case of `CO[C@@H]1[C@@H](O[C@@H]2O[C@H](C)[C@@H](O[C@H]3C[C@@](C)(O)[C@@H](OC(=O)CC(C)C)[C@H](C)O3)[C@H](N(C)C)[C@H]2O)[C@@H](CC=O)C[C@@H](C)[C@@H](O)/C=C/C=C/C[C@@H](C)OC(=O)C[C@H]1OC(C)=O` [Josamycin, reference compound], the “haematic levels of Josamycin at the 6th hour” value in series [1] turned out to be 0.139 µg/mL.
In the case of `CO[C@@H]1[C@@H](O[C@@H]2O[C@H](C)[C@@H](O[C@H]3C[C@@](C)(O)[C@@H](OC(=O)CC(C)C)[C@H](C)O3)[C@H](N(C)C)[C@H]2O)[C@@H](CC=O)C[C@@H](C)[C@@H](O)/C=C/C=C/C[C@@H](C)OC(=O)C[C@H]1OC(C)=O` [salt of formula (I), salt of the macrolide antibiotic Josamycin with (-)-cis-1,2-epoxypropyl phosphonic acid], the LD50 was 418 mg/kg in the series “in vivo [2]” (intravenous, read-out: LD50); above 5000 mg/kg in “in vivo [2]” (setting [9]); 386 mg/kg in “in vivo [3]” (intravenous, read-out: LD50); above 5000 mg/kg in the series “in vivo [3]” (setting [9]). For the same molecule, in the series on male Wistar rats, the “alteration of toxic character” value was “did not reveal any alteration of toxic character”. In addition, the “alteration of the normal embrional or fetal development” value with pregnant rats and in the series with pregnant rabbits was “did not cause any alteration of the normal embrional or fetal development” each time. Further, the “growth and survival of the newborns” value with newborns is recorded as “comparable with those of the controls”. For the same molecule, the “duration of haematic levels” value in series [1] is listed as “longer lasting”. Moreover, the “haematic levels of Josamycin at the 6th hour” value in series [1] is 0.297 µg/mL. Further, the absorption entry in series [4] (oral route) is “highly absorbed”. For the same molecule, in series [4] (oral route), the “duration of tissue and haematic levels” value is listed as “significantly long lasting”. In [4] (oral, versus free base and propionate), the “tissue and haematic levels relative to equivalent amounts of Josamycin” value is recorded as “nearly twice”. The “haematic levels of Josamycin relative to equivalent dosages of Josamycin” value in series [4] (versus free base and propionate) is given as “twice”. In addition, the antibacterial spectrum result in series [5], in [6] and in series [8] was “comparable with that of Josamycin” each time. For the same molecule, the solubility in water entry in “Solubility in water” is reported as “high solubility in water”. For the same molecule, the toxicity result in [7] is reported as “very little toxic”.

These data come from patent US4607024A, “Epoxypropylphosphonate salt of jesamycin and pharmaceutical composition containing same” (Schering S.p.A., priority 1983, dated 1986).
